Measurements taken from the NIST ThermoML archive (doi:10.1016/j.jct.2015.11.025).
Numbers after ± are expanded uncertainties.

Columns and labels:
[1] = Molar enthalpy of transition or fusion; conditions: Crystal; DSC
[2] = Crystal

- Molar enthalpy of transition or fusion [1]: 9.77 ± 0.263 kcal/mol
- mass density ([2]; 298.15 K, 101.33 kPa, flotation method): 1297 ± 2 kg/m3
- Normal melting temperature ([2]; DTA): 136.90 ± 1.1 °C
Compound: CCOC(=O)Cc1c(C(=O)OCC)sc(N)c1C#N
